Here are results for 13 compounds from PubChem BioAssay (NCI).

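96-well plates; 48 h exposure; 5 concentrations. Endpoints by linear interpolation between flanking doses. Not reached: highest tested concentration assigned. Definition used: TGI = concentration required for complete inhibition of growth.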 Bounds are passed on as bounds.

Test systems include SN12C renal; HCC-2998 colon; NCI-H460 lung; BT-549 breast; HL-60(TB) leukemia; SK-OV-3 ovarian; T-47D breast; SK-MEL-2 melanoma; HCT-116 colon; UACC-257 melanoma.
Experiment in all cases: inhibition of tumour cell growth, NCI panel, 48 h

Turning to `CC(C)[Si](OC1=CCC[C@H]2NC(=O)[C@@H](Cc3ccccc3)[C@@]12C)(C(C)C)C(C)C`, the TGI in the assay on SN12C renal stood at 9.85 µM; in the assay on HCC-2998 colon, 4.42 µM; in the assay with NCI-H460 lung, 12.4 µM; in the assay on BT-549 breast it was 24.1 µM; with HL-60(TB) leukemia it was 7.82 µM; in the assay with SK-OV-3 ovarian, 18.9 µM. Moreover, the TGI in the assay on T-47D breast worked out at 12.2 µM; in the assay with SK-MEL-2 melanoma it was 29.7 µM; in the assay on HCT-116 colon, 14.1 µM; in the assay on UACC-257 melanoma it was 16.3 µM.

On to `CCn1cc(C(=O)O)c(=O)c2cc3c(cc21)S(=O)(=O)CC3`, for which the TGI in the assay with SN12C renal, in the assay on HCC-2998 colon, in the assay with NCI-H460 lung, in the assay on BT-549 breast, with HL-60(TB) leukemia and in the assay with SK-OV-3 ovarian was above 100 µM in each case. Besides, the TGI with T-47D breast, in the assay with SK-MEL-2 melanoma, in the assay on HCT-116 colon and in the assay with UACC-257 melanoma was above 100 µM throughout.

`O=S(=O)(O)ON=C1c2ccccc2-c2ccccc21`: the TGI in the assay on SN12C renal, with HCC-2998 colon, with NCI-H460 lung, in the assay with BT-549 breast, with HL-60(TB) leukemia and in the assay with SK-OV-3 ovarian was above 100 µM each time. The TGI in the assay with T-47D breast, with SK-MEL-2 melanoma, in the assay on HCT-116 colon and with UACC-257 melanoma was above 100 µM in each case.

Consider `O=C1CCC(=O)N1n1c(Cc2ccc(Cl)cc2)n[nH]c1=O`, for which the TGI with SN12C renal, in the assay with HCC-2998 colon, in the assay on NCI-H460 lung, with BT-549 breast, in the assay on HL-60(TB) leukemia and in the assay with SK-OV-3 ovarian was above 100 µM each time. Further, the TGI with T-47D breast, in the assay on SK-MEL-2 melanoma, with HCT-116 colon and with UACC-257 melanoma was above 100 µM in each case.

Regarding `O=c1oc2cc(O)ccc2c(O)c1C(c1cccnc1)c1c(O)c2ccc(O)cc2oc1=O`, the TGI in the assay on SN12C renal, in the assay on HCC-2998 colon, in the assay with NCI-H460 lung, in the assay on BT-549 breast, with HL-60(TB) leukemia and in the assay on SK-OV-3 ovarian was above 100 µM each time. Further, the TGI with T-47D breast, with SK-MEL-2 melanoma, in the assay with HCT-116 colon and with UACC-257 melanoma was above 100 µM each time.

For `O=C1[C@@H]2[C@@H](c3ccccc3)[C@]2(Cl)C(=O)[C@H]2[C@H](c3ccccc3)[C@@]12Cl`, the TGI in the assay with SN12C renal, in the assay with HCC-2998 colon, in the assay on NCI-H460 lung, in the assay with BT-549 breast, with HL-60(TB) leukemia and in the assay with SK-OV-3 ovarian was above 100 µM throughout. The TGI in the assay with T-47D breast, in the assay with SK-MEL-2 melanoma, with HCT-116 colon and in the assay with UACC-257 melanoma was above 100 µM throughout.

For the compound `Cc1cc(Cc2c(F)c(F)c(C(c3cc(C)no3)c3c(F)c(F)c(F)c(F)c3F)c(F)c2F)on1` (stereo not given), the TGI in the assay with SN12C renal was above 100 µM; in the assay on HCC-2998 colon, above 100 µM; in the assay with NCI-H460 lung it was above 100 µM; in the assay on BT-549 breast, above 100 µM; in the assay on HL-60(TB) leukemia it was above 39.6 µM; in the assay with SK-OV-3 ovarian it was above 100 µM. The TGI with T-47D breast, with SK-MEL-2 melanoma, in the assay on HCT-116 colon and with UACC-257 melanoma was above 100 µM throughout.

Turning to `N#C/C(=C\NC(=S)c1ccncc1)c1nc2ccccc2s1`, the TGI in the assay on SN12C renal, with HCC-2998 colon, in the assay on NCI-H460 lung, in the assay with BT-549 breast, with HL-60(TB) leukemia and in the assay with SK-OV-3 ovarian was above 100 µM in each case. Besides, the TGI in the assay on T-47D breast, in the assay on SK-MEL-2 melanoma, in the assay with HCT-116 colon and in the assay on UACC-257 melanoma was above 100 µM throughout.

As to `O=C1CCCC/C1=C\c1ccc(Br)cc1`, the TGI in the assay with SN12C renal was determined as 41.5 µM; in the assay on HCC-2998 colon, 44.4 µM; with NCI-H460 lung it was 98.2 µM; in the assay on BT-549 breast, 28.7 µM; in the assay with HL-60(TB) leukemia, 7.23 µM; with SK-OV-3 ovarian it was 44.5 µM. For the same compound, the TGI in the assay on T-47D breast was 51 µM; in the assay on SK-MEL-2 melanoma it was 46.4 µM; with HCT-116 colon, 31.6 µM; with UACC-257 melanoma, 70.3 µM.

Turning to `C/C(=C/C(=O)Nn1c(Cc2ccccc2)n[nH]c1=O)C(=O)O`, the TGI in the assay with SN12C renal, in the assay on HCC-2998 colon, in the assay with NCI-H460 lung, with BT-549 breast, in the assay with HL-60(TB) leukemia and in the assay with SK-OV-3 ovarian was above 100 µM throughout. Moreover, the TGI in the assay with T-47D breast, in the assay on SK-MEL-2 melanoma, in the assay on HCT-116 colon and in the assay with UACC-257 melanoma was above 100 µM in each case.

As to `CC1OC(O[C@H]2C3C=CO[C@@H](OC4OC(CO)C(O)C(O)C4O)C3[C@@]3(COC(=O)/C=C/c4ccc(O)cc4)O[C@@H]23)C(O)C(O)C1O` (stereo not given in full), the TGI in the assay on SN12C renal, with HCC-2998 colon, in the assay on NCI-H460 lung, in the assay on BT-549 breast, in the assay on HL-60(TB) leukemia and in the assay on SK-OV-3 ovarian was above 100 µM each time. In addition, the TGI in the assay on T-47D breast, with SK-MEL-2 melanoma, in the assay on HCT-116 colon and in the assay on UACC-257 melanoma was above 100 µM each time.

Turning to `COC(=O)C1CCC(=O)N1C(c1ccc(OC)cc1)c1ccc(OC)cc1` (stereo not given), the TGI in the assay with SN12C renal, with HCC-2998 colon, with NCI-H460 lung, with BT-549 breast, with HL-60(TB) leukemia and with SK-OV-3 ovarian was above 100 µM each time. Moreover, the TGI in the assay with T-47D breast, in the assay on SK-MEL-2 melanoma, in the assay with HCT-116 colon and with UACC-257 melanoma was above 100 µM each time.

Consider `CC(=C(C(N)=O)C(N)=O)C1C=C(c2cccs2)CC(c2ccc(Cl)cc2)=C1O` (stereo not given), for which the TGI in the assay with SN12C renal, in the assay with HCC-2998 colon, in the assay with NCI-H460 lung, in the assay on BT-549 breast, with HL-60(TB) leukemia and with SK-OV-3 ovarian was above 100 µM throughout. Also, the TGI with T-47D breast, with SK-MEL-2 melanoma, in the assay on HCT-116 colon and in the assay with UACC-257 melanoma was above 100 µM throughout.
